Numbers after ± are expanded uncertainties.
Columns and labels:
[1] = xn = mol fraction of the nth substance listed; conditions: 93.2 kPa, Liquid, x2 = 0; for speed of sound: Frequency=3 MHz, Sing-around technique in a fixed-path interferometer; for mass density: Vibrating tube method
[2] = 93.2 kPa, Liquid; for speed of sound: Frequency=3 MHz, Sing-around technique in a fixed-path interferometer; for mass density: Vibrating tube method

| speed of sound ([1]; 293.15 K) [m/s] | mass density ([1]; 293.15 K) [kg/m3] | speed of sound ([1]; 298.15 K) [m/s] | mass density ([1]; 298.15 K) [kg/m3] | speed of sound ([1]; 303.15 K) [m/s] | mass density ([1]; 303.15 K) [kg/m3] | speed of sound ([1]; 308.15 K) [m/s] | mass density ([1]; 308.15 K) [kg/m3] | speed of sound ([1]; 313.15 K) [m/s] | mass density ([1]; 313.15 K) [kg/m3] | speed of sound ([2]; 293.15 K) [m/s] | mass density ([2]; 293.15 K) [kg/m3] | speed of sound ([2]; 298.15 K) [m/s] | mass density ([2]; 298.15 K) [kg/m3] | speed of sound ([2]; 303.15 K) [m/s] | mass density ([2]; 303.15 K) [kg/m3] | speed of sound ([2]; 308.15 K) [m/s] | mass density ([2]; 308.15 K) [kg/m3] | speed of sound ([2]; 313.15 K) [m/s] | mass density ([2]; 313.15 K) [kg/m3] | Compound |
| --- | --- | --- | --- | --- | --- | --- | --- | --- | --- | --- | --- | --- | --- | --- | --- | --- | --- | --- | --- | --- |
| 1119.1 ± 5.2 | 791.347 ± 4 | 1102.5 ± 5.2 | 786.636 ± 4 | 1086 ± 5.2 | 781.907 ± 4 | 1069.7 ± 5.2 | 777.156 ± 4 | 1053.6 ± 5.2 | 772.385 ± 4 | – | – | – | – | – | – | – | – | – | – | CO [methanol] + CCCC(=O)[O-].CCCC[NH3+] |
| – | – | – | – | – | – | – | – | – | – | 1292.8 ± 5.3 | 814.807 ± 4 | 1275.7 ± 5.3 | 811.144 ± 4 | 1258.8 ± 5.3 | 807.455 ± 4 | 1242.1 ± 5.3 | 803.736 ± 4 | 1225.5 ± 5.3 | 799.99 ± 4 | CCCCCO [pentan-1-ol] |
| – | – | – | – | – | – | – | – | – | – | 1256.8 ± 5.3 | 809.523 ± 4 | 1239.7 ± 5.3 | 805.71 ± 4 | 1222.8 ± 5.3 | 801.872 ± 4 | 1206.1 ± 5.3 | 798.004 ± 4 | 1189.5 ± 5.2 | 794.103 ± 4 | CCCCO [butan-1-ol] |
| – | – | – | – | – | – | – | – | – | – | 1223.1 ± 5.3 | 803.625 ± 4 | 1205.8 ± 5.3 | 799.62 ± 4 | 1188.6 ± 5.3 | 795.582 ± 4 | 1171.6 ± 5.3 | 791.511 ± 4 | 1154.9 ± 5.3 | 787.407 ± 4 | CCCO [propan-1-ol] |
| – | – | – | – | – | – | – | – | – | – | 1431.5 ± 5.3 | 928.794 ± 4 | 1410.3 ± 5.3 | 925.509 ± 4 | 1390.4 ± 5.3 | 922.217 ± 4 | 1371.5 ± 5.3 | 918.88 ± 4 | 1353.6 ± 5.3 | 915.567 ± 4 | CCCC(=O)[O-].CCCC[NH3+] [n-butylammonium butanoate] |
| 1292.8 ± 5.3 | 814.807 ± 4 | 1275.7 ± 5.3 | 811.144 ± 4 | 1258.8 ± 5.3 | 807.455 ± 4 | 1242.1 ± 5.3 | 803.736 ± 4 | 1225.5 ± 5.3 | 799.99 ± 4 | – | – | – | – | – | – | – | – | – | – | CCCCCO [pentan-1-ol] + CCCC(=O)[O-].CCCC[NH3+] |
| 1161 ± 5.2 | 789.657 ± 4 | 1143.8 ± 5.2 | 785.366 ± 4 | 1126.8 ± 5.2 | 781.043 ± 4 | 1109.9 ± 5.2 | 776.696 ± 4 | 1093.1 ± 5.2 | 772.313 ± 4 | – | – | – | – | – | – | – | – | – | – | CCO [ethanol] + CCCC(=O)[O-].CCCC[NH3+] |
| 1223.1 ± 5.3 | 803.625 ± 4 | 1205.8 ± 5.3 | 799.62 ± 4 | 1188.6 ± 5.3 | 795.582 ± 4 | 1171.6 ± 5.3 | 791.511 ± 4 | 1154.9 ± 5.3 | 787.407 ± 4 | – | – | – | – | – | – | – | – | – | – | CCCO [propan-1-ol] + CCCC(=O)[O-].CCCC[NH3+] |
| 1256.8 ± 5.3 | 809.523 ± 4 | 1239.7 ± 5.3 | 805.71 ± 4 | 1222.8 ± 5.3 | 801.872 ± 4 | 1206.1 ± 5.3 | 798.004 ± 4 | 1189.5 ± 5.2 | 794.103 ± 4 | – | – | – | – | – | – | – | – | – | – | CCCCO [butan-1-ol] + CCCC(=O)[O-].CCCC[NH3+] |
| – | – | – | – | – | – | – | – | – | – | 1161 ± 5.2 | 789.657 ± 4 | 1143.8 ± 5.2 | 785.366 ± 4 | 1126.8 ± 5.2 | 781.043 ± 4 | 1109.9 ± 5.2 | 776.696 ± 4 | 1093.1 ± 5.2 | 772.313 ± 4 | CCO [ethanol] |
| – | – | – | – | – | – | – | – | – | – | 1119.1 ± 5.2 | 791.347 ± 4 | 1102.5 ± 5.2 | 786.636 ± 4 | 1086 ± 5.2 | 781.907 ± 4 | 1069.7 ± 5.2 | 777.156 ± 4 | 1053.6 ± 5.2 | 772.385 ± 4 | CO [methanol] |

Reference: the NIST ThermoML archive (doi:10.1016/j.jct.2016.09.007)
